Values joined by “and” are separate entries in the source; they are usually repeats but may differ in a detail not shown here. Equal values may be shown once.
Tests used:
MCF-7 = assay: MTT anti-proliferative assay, MCF-7; type: cell-based, human; conditions: Homo sapiens, MCF7
HepG-2 = assay: MTT anti-proliferative assay, HepG-2; type: cell-based, human; conditions: Homo sapiens, HepG2
K-562 = assay: MTT anti-proliferative assay, K-562; type: cell-based, human; conditions: Homo sapiens, K562
HepG-2 cells = assay: Cell cycle analysis (PI staining, flow cytometry); type: cell-based, human
Procedure: In order to cause cytotoxicity, anticancer medicines must stop cell division at specific checkpoints, which are discrete stages of the cell cycle.
Propidium iodide (PI) staining and flow cytometry analysis[74,75] were used to analyze the cell cycle for derivatives 8a and 9a, as illustrated in the SI.
(§1) through Flow cytometric analysis.
(§2) Pellets were collected again and incubated with
(§3) Total RNA from vehicle-treated
(§4) (Thermo Scientific, USA).
(§5) All experiments were performed in […]

caspase-3 = assay: Caspase-3 expression level in HepG-2 cells; type: cell-based, human; conditions: for Caspase-3 ± SE: HepG-2, at IC50 concentrations, control 0.460
Procedure: (§6) All synthesized compounds were tested at their cytotoxic concentrations in HepG-2 cells for analysis of gene expression levels of apoptotic markers caspase-3, caspase-9, TNF-α, and IL-6 proteins, and only two active compounds were tested for BAX and Bcl-2 proteins.
as §1, §2, §3, §4, §5

caspase-9 = assay: Caspase-9 expression level in HepG-2 cells; type: cell-based, human; conditions: for Caspase-9 ± SE: HepG-2, at IC50 concentrations, control 11.01
Procedure: as §6, §1, §2, §3, §4, §5

TNF-alpha = TNF-alpha level in HepG-2 cells; type: cell-based, human; conditions: control 43.48
Procedure: as §6, §1, §2, §3, §4, §5

IL-6R = IL-6R level in HepG-2 cells; type: cell-based, human
Procedure: as §6, §1, §2, §3, §4, §5

BAX = BAX gene expression in HepG-2 cells; type: cell-based, human
Procedure: as §6, §1, §2, §3, §4, §5

Bcl-2 = Bcl-2 gene expression in HepG-2 cells; type: cell-based, human
Procedure: as §6, §1, §2, §3, §4, §5

BAX/Bcl-2 = BAX/Bcl-2 ratio in HepG-2 cells; type: cell-based, human; conditions: control 0.1260
Procedure: as §6, §1, §2, §3, §4, §5

EGFR = EGFR (Homo sapiens, UniProt P00533); assay: EGFR kinase inhibition assay (ELISA kit)
Sequence of EGFR (P00533 25-1210): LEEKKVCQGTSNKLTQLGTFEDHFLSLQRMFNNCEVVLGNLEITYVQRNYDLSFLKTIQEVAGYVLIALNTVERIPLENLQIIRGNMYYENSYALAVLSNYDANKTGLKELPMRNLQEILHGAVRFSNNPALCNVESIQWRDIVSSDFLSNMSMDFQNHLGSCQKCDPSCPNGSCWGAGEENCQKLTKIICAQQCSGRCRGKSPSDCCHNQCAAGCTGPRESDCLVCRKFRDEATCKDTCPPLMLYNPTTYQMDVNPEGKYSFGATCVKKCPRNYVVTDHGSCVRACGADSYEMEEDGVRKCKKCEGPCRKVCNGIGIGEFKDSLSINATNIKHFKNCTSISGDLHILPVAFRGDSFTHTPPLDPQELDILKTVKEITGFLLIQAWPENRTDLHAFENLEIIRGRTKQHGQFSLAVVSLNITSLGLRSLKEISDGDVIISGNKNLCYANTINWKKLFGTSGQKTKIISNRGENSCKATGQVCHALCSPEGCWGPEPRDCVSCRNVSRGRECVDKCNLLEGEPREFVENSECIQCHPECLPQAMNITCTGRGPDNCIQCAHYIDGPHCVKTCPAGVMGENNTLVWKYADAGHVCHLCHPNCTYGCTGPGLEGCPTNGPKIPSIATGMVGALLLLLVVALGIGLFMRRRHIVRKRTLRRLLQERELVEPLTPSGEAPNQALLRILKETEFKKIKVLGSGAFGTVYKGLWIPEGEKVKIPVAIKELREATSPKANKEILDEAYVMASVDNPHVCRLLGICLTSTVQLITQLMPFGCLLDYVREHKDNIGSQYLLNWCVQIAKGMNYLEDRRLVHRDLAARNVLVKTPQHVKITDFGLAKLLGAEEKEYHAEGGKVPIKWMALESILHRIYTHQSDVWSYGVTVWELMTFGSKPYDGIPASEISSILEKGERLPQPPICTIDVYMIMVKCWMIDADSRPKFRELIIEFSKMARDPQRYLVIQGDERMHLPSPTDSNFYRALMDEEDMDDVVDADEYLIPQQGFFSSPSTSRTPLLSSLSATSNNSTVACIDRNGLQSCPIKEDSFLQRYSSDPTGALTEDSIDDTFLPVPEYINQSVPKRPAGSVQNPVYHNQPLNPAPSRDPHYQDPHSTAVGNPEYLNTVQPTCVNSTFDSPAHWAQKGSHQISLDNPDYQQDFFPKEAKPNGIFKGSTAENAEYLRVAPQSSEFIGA

VEGFR-2 = VEGFR-2 (Homo sapiens, UniProt P35968); assay: In vitro VEGFR-2 inhibitory assay (ELISA kit); conditions: VEGFR-2 kinase
Sequence of VEGFR-2 (P35968 20-1356): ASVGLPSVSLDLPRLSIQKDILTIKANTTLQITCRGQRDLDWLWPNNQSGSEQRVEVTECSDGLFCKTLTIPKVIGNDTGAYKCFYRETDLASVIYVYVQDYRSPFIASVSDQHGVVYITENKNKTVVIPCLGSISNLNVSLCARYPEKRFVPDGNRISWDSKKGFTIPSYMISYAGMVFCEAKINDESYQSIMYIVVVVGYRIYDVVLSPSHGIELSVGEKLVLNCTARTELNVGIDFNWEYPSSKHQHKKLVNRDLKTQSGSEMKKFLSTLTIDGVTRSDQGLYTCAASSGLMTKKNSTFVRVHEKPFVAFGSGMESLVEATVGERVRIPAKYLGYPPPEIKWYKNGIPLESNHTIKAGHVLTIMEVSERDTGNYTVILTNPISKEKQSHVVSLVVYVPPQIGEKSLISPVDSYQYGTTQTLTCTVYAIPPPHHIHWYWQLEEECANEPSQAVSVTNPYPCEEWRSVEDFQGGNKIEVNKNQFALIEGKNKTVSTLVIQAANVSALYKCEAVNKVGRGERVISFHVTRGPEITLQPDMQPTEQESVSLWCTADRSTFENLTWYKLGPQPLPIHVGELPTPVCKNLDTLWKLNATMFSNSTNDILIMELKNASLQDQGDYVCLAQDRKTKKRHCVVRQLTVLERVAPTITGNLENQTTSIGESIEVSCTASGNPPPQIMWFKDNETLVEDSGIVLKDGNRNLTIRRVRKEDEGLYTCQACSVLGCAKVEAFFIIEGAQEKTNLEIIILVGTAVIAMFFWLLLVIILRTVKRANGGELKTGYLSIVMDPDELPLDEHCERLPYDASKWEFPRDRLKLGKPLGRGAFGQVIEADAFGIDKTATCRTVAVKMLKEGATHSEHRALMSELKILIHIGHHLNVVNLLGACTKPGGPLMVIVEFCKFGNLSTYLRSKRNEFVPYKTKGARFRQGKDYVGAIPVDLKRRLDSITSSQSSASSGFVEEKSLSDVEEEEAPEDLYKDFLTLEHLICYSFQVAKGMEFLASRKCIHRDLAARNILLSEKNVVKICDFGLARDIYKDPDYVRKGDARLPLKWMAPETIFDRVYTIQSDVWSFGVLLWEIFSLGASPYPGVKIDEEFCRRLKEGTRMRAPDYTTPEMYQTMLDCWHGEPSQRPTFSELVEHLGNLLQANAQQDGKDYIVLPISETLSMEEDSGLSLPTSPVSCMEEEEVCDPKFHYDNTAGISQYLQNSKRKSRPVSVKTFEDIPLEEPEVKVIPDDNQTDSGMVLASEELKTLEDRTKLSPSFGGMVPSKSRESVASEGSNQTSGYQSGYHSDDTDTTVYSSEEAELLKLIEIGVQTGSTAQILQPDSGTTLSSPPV

## O=C(Cn1cnc2cc(Cl)ccc2c1=O)Nc1ccccc1 [8a, 2-(7-Chloro-4-oxoquinazolin-3(4H)-yl)-N-phenylacetamide]
MCF-7; MCF-7, 0.195 umol
  viability at 0.195 µmol: 93.5%
MCF-7; MCF-7, 0.195 umol, read-out: Toxicity %
  cytotoxicity at 0.195 µmol: 6.51%
MCF-7; MCF-7, 0.391 umol
  viability at 0.391 µmol: 67%
MCF-7; MCF-7, 0.391 umol, read-out: Toxicity %
  cytotoxicity at 0.391 µmol: 33%
MCF-7; MCF-7, 0.781 umol
  viability at 0.781 µmol: 45.2%
MCF-7; MCF-7, 0.781 umol, read-out: Toxicity %
  cytotoxicity at 0.781 µmol: 54.8%
MCF-7; MCF-7, 1.563 umol
  viability at 1.563 µmol: 28.5%
MCF-7; MCF-7, 1.563 umol, read-out: Toxicity %
  cytotoxicity at 1.563 µmol: 71.5%
MCF-7; MCF-7, 3.125 umol
  viability at 3.125 µmol: 17.8%
MCF-7; MCF-7, 3.125 umol, read-out: Toxicity %
  cytotoxicity at 3.125 µmol: 82.2%
MCF-7; MCF-7, 6.25 umol
  viability at 6.25 µmol: 11.4%
MCF-7; MCF-7, 6.25 umol, read-out: Toxicity %
  cytotoxicity at 6.25 µmol: 88.6%
MCF-7; MCF-7, 12.5 umol
  viability at 12.5 µmol: 8.31%
MCF-7; MCF-7, 12.5 umol, read-out: Toxicity %
  cytotoxicity at 12.5 µmol: 91.7%
MCF-7; MCF-7, 25 umol
  viability at 25 µmol: 7.26%
MCF-7; MCF-7, 25 umol, read-out: Toxicity %
  cytotoxicity at 25 µmol: 92.7%
MCF-7; MTT, MCF-7, read-out: Cytotoxicity against cancer cells IC50 MCF-7
  IC50: 0.6955 ± 0.0051 µM
HepG-2; HepG-2, 0.195 ug/ml
  viability at 0.195 µg/mL: 45.9%
HepG-2; HepG-2, 0.195 ug/ml, read-out: Toxicity %
  cytotoxicity at 0.195 µg/mL: 54.1%
HepG-2; HepG-2, 0.391 ug/ml
  viability at 0.391 µg/mL: 26.4%
HepG-2; HepG-2, 0.391 ug/ml, read-out: Toxicity %
  cytotoxicity at 0.391 µg/mL: 73.6%
HepG-2; HepG-2, 0.781 ug/ml
  viability at 0.781 µg/mL: 16.7%
HepG-2; HepG-2, 0.781 ug/ml, read-out: Toxicity %
  cytotoxicity at 0.781 µg/mL: 83.3%
HepG-2; HepG-2, 1.563 ug/ml
  viability at 1.563 µg/mL: 11.8%
HepG-2; HepG-2, 1.563 ug/ml, read-out: Toxicity %
  cytotoxicity at 1.563 µg/mL: 88.2%
HepG-2; HepG-2, 3.125 ug/ml
  viability at 3.125 µg/mL: 8.68%
HepG-2; HepG-2, 3.125 ug/ml, read-out: Toxicity %
  cytotoxicity at 3.125 µg/mL: 91.3%
HepG-2; HepG-2, 6.25 ug/ml
  viability at 6.25 µg/mL: 7.88%
HepG-2; HepG-2, 6.25 ug/ml, read-out: Toxicity %
  cytotoxicity at 6.25 µg/mL: 92.1%
HepG-2; HepG-2, 12.5 ug/ml
  viability at 12.5 µg/mL: 6.74%
HepG-2; HepG-2, 12.5 ug/ml, read-out: Toxicity %
  cytotoxicity at 12.5 µg/mL: 93.3%
HepG-2; HepG-2, 25 ug/ml
  viability at 25 µg/mL: 5.9%
HepG-2; HepG-2, 25 ug/ml, read-out: Toxicity %
  cytotoxicity at 25 µg/mL: 94.1%
HepG-2; MTT, HepG-2, read-out: Cytotoxicity against cancer cells IC50 HepG-2
  IC50: 0.1871 ± 0.0018 µM
K-562; K-562, 0.195 umol
  viability at 0.195 µmol: 46.6%
K-562; K-562, 0.195 umol, read-out: Toxicity %
  cytotoxicity at 0.195 µmol: 53.4%
K-562; K-562, 0.391 umol
  viability at 0.391 µmol: 29.3%
K-562; K-562, 0.391 umol, read-out: Toxicity %
  cytotoxicity at 0.391 µmol: 70.7%
K-562; K-562, 0.781 umol
  viability at 0.781 µmol: 22%
K-562; K-562, 0.781 umol, read-out: Toxicity %
  cytotoxicity at 0.781 µmol: 78%
K-562; K-562, 1.563 umol
  viability at 1.563 µmol: 12.7%
K-562; K-562, 1.563 umol, read-out: Toxicity %
  cytotoxicity at 1.563 µmol: 87.3%
K-562; K-562, 3.125 umol
  viability at 3.125 µmol: 8.29%
K-562; K-562, 3.125 umol, read-out: Toxicity %
  cytotoxicity at 3.125 µmol: 91.7%
K-562; K-562, 6.25 umol
  viability at 6.25 µmol: 7.18%
K-562; K-562, 6.25 umol, read-out: Toxicity %
  cytotoxicity at 6.25 µmol: 92.8%
K-562; K-562, 12.5 umol
  viability at 12.5 µmol: 6.03%
K-562; K-562, 12.5 umol, read-out: Toxicity %
  cytotoxicity at 12.5 µmol: 94%
K-562; K-562, 25 umol
  viability at 25 µmol: 5.54%
K-562; K-562, 25 umol, read-out: Toxicity %
  cytotoxicity at 25 µmol: 94.5%
K-562; MTT, K-562, read-out: Cytotoxicity against cancer cells IC50 K-562
  IC50: 0.1884 ± 0.0017 µM
HepG-2 cells; HepG-2, cytotoxic concentration, 24 h, control 68.12
  % Sub-G1: 96.3% and 96.13%
HepG-2 cells; HepG-2, control 2.23
  % S: 0.52%
HepG-2 cells; HepG-2, control 6.52
  % G2/M: 0.16%
HepG-2 cells; HepG-2, control 23.14
  % G1: 3.19%
caspase-3
  Caspase-3 ± SE: 1.52 ± 0.017 ng/mL
caspase-3; listed as R2
  Caspase-3 ± SE: 1.52 ng/mL
caspase-3; HepG-2, vs control cells
  caspase-3 expression level, fold increase: 3.30 fold
caspase-9
  Caspase-9 ± SE: 74.01 ± 3.92 ng/L
caspase-9; listed as R2
  Caspase-9 ± SE: 74.01 ng/L
caspase-9; HepG-2, vs control cells
  caspase-9 expression level, fold increase: 6.72 fold
TNF-alpha; HepG-2, at IC50 concentrations
  TNF-alpha ±SE: 14.37 ± 0.45 ng/L
TNF-alpha; raw data, HepG2
  TNF-alpha ±SE: 23.6 ng/L
IL-6R; HepG-2, at IC50 concentrations, control 44.10
  IL-6R ± SE: 19.54 ± 1.62 ng/L
IL-6R; HepG-2, control 44.10%
  IL-6R protein level: 19.54 ng/L
IL-6R; raw data, HepG2, control 44.10
  IL-6 ±SE: 26.0 ng/L
BAX; HepG-2, vs control
  fold increase in BAX expression level: 3.8 fold
BAX; HepG-2, control 0.44
  BAX expression level: 1.67 fold change
BAX; HepG-2, control 0.4448
  Gene expression (fold change) BAX: 1.6792 ± 0.74 fold change
Bcl-2; HepG-2, vs control
  fold reduction in Bcl-2 expression level: 3.75 fold
Bcl-2; HepG-2, control 3.4983
  Gene expression (fold change) Bcl-2: 0.93 fold change and 0.9352 ± 0.09 fold change
BAX/Bcl-2
  Gene expression (fold change) BAX/Bcl-2 ratio: 1.77 and 1.7777 ± 0.11
EGFR; HepG2
  Activity %: 16.790%
  Inhibition %: 83.210%
EGFR; K-562
  Activity %: 33.902%
  Inhibition %: 66.098%
EGFR; MCF7
  Activity %: 20.242%
  Inhibition %: 79.758%
VEGFR-2; HepG2
  Activity %: 25.136%
  Inhibition %: 74.864%
VEGFR-2; K-562
  Activity %: 37.495%
  Inhibition %: 62.505%
VEGFR-2; MCF7
  Activity %: 32.377%
  Inhibition %: 67.623%

Reference: article PMC12377202, “Design, synthesis, and cytotoxic evaluation of quinazoline-based derivatives as VEGER-2 inhibitors: comparative study against EGFR kinase activity, induction of apoptosis, and molecular docking study” (RSC Advances, 2025)
